Measured values from patent US9447078B2, “Substituted heterocyclic compounds for disease treatment” (Acucela Inc., priority 2012, dated 2016).

Molecular target: T1, isomerase (Mus musculus, UniProt Q91ZQ5)
T1 construct: from tissue; host or cells: eyes of living CD-1 (and Balb/c) mice, endogenous protein
T1 sequence (Q91ZQ5 1-533): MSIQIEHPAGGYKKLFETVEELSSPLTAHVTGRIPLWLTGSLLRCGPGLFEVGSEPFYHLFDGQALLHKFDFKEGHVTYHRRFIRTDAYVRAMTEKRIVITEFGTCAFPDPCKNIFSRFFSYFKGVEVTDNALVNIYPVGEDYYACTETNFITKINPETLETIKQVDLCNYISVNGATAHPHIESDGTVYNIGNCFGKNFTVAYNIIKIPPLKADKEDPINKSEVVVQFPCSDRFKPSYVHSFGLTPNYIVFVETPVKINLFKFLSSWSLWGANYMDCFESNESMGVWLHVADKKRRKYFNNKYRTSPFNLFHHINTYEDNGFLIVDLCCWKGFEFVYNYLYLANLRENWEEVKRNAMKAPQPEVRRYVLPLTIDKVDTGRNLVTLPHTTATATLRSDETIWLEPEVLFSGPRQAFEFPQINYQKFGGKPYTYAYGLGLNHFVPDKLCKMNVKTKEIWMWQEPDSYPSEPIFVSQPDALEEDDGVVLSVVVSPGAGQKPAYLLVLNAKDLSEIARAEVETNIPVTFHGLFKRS
Assay: In vivo murine isomerase assay (recovery of 11-cis-retinal after photobleaching)
Conditions: po, mice, oral gavage
Experimental: The capability of compounds described herein to inhibit isomerase was determined by an in vivo murine isomerase assay. Brief exposure of the eye to intense light (“photobleaching” of the visual pigment or simply “bleaching”) is known to photo-isomerize almost all 11-cis-retinal in the retina. The recovery of 11-cis-retinal after bleaching was used to estimate the activity of isomerase in vivo. Delayed recovery, as represented by lower 11-cis-retinal oxime levels, indicates inhibition of isomerization reaction. Procedures were performed essentially as described by Golczak et al., Proc. Natl. Acad. Sci. USA 102:8162-67 (2005). See also Deigner et al., Science, 244: 968-71 (1989); Gollapalli et al., Biochim Biophys Acta. 1651: 93-101 (2003); Parish, et al., Proc. Natl. Acad. Sci. USA, 14609-13 (1998); Radu, et al., Proc Natl Acad Sci USA 101: 5928-33 (2004).
Six-week old dark-adapted CD-1 (albino) male mice were orally gavaged with compound (0.03-3 mg/kg) dissolved in 100 μl corn oil containing 10% ethanol (five animals per group). After 2-24 hours in the dark, the mice were exposed to photobleaching of 5,000 lux of white light for 10 minutes. The mice were allowed to recover 2 hours in the dark. The animals were then sacrificed by carbon dioxide inhalation. Retinoids were extracted from the eye and the regeneration of 11-cis-retinal was assessed at various time intervals.
All steps were performed in darkness with minimal redlight illumination (low light darkroom lights and red-filtered flashlights for spot illumination as needed) (see, e.g., Maeda et al., J. Neurochem 85:944-956, 2003; Van Hooser et al., J Biol Chem 277:19173-82, 2002). After the mice were sacrificed, the eyes were immediately removed and placed in liquid nitrogen for storage.
The eyes were placed in 500 μL of bis-tris propane buffer (10 mM, pH ˜7.3) and 20 μL of 0.8M hydroxile amine (pH˜7.3). The eyes were cut up into small pieces with small iris scissors and then thoroughly homogenized at 30000 rpm with a mechanical homogenizer (Polytron PT 1300 D) in the tube until no visible tissue remained. 500 μL of methanol and 500 μL of heptane were added to each tube. The tubes were attached to a vortexer so that the contents were mixed thoroughly for 15 minutes in room temperature. The organic phase was separated from the aqueous phase by centrifugation for 10 min at 13K rpm, 4° C. 240 μL of the solution from the top layer (organic phase) was removed and transferred to clean 300 μl glass inserts in HPLC vials using glass pipette and the vials were crimped shut tightly.
The samples were analyzed on an Agilent 1100 HPLC system with normal phase column: SILICA (Beckman Coutlier, dp 5 μm, […]). […] Loading volume for each sample was 100 μl; detection wavelength is 360 nm. The area under the curve for 11-cis retinal oxime was calculated by Agilent Chemstation software and was recorded manually. Data processing was performed using Prizm software.
Positive control mice (no compound administered) were sacrificed fully dark-adapted and the eye retinoids analyzed. Light (bleached) control mice (no compound administered) were sacrificed and retinoids isolated and analyzed immediately after light treatment.
A time course study was performed to determine the isomerase inhibitory activity of the test compound. Male Balb/c mice (4/group) receive test compound orally by gavage. The animals were then “photo-bleached” (5000 Lux white light for 10 minutes) at 2, 4, 8, 16 and 24 hours after dosing, and returned to darkness to allow recovery of the 11-cis-retinal content of the eyes. Mice were sacrificed 2 hours after bleaching, eyes were enucleated, and retinoid content was analyzed by HPLC.
Recovery control mice (vehicle-only treated) were light-treated and left to recover for 2 hours in the dark before sacrifice and analysis. Light control mice (vehicle only treated) were sacrificed for analysis immediately after photo-bleaching.

Row | SMILES | inhibition at 1 mg/kg (Time 2 hour) [%] | inhibition at 1 mg/kg (Time 4 hour) [%] | also measured
1 | NCCC(O)c1cccc(CCC2CCCCC2)n1 (centres unmarked) [Example 4, 3-Amino-1-(6-(2-cyclohexylethyl)pyridin-2-yl)propan-1-ol] | 29.3 ± 4.3 | – | –
2 | NCC[C@@H](O)c1ccc(OCC2CCCCC2)s1 [Example 5, (R)-3-Amino-1-(5-(cyclohexylmethoxy)thiophen-2-yl)propan-1-ol] | 0 | – | –
3 | NCCC(O)c1cccc(/C=C/C2CCCCC2)n1 (centres unmarked) [Example 3, (E)-3-Amino-1-(6-(2-cyclohexylvinyl)pyridin-2-yl)propan-1-ol] | 0 | – | –
4 | NCCC(O)c1ccc(OCC2CCCCC2)s1 (centres unmarked) [Example 1, 3-Amino-1-(5-(cyclohexylmethoxy)thiophen-2-yl)propan-1-ol] | 0 | 0 | –

Second part, led by results:

Row | inhibition at 1 mg/kg (Time 2 hour) [%] | inhibition at 1 mg/kg (Time 4 hour) [%] | SMILES | also measured
5 | 8.6 ± 4.2 | – | NCCC(O)c1cc(C#CC2(O)CCCCC2)cs1 (centres unmarked) [Example 9, 1-((5-(3-Amino-1-hydroxypropyl)thiophen-3-yl)ethynyl)cyclohexanol] | –
6 | 68.9 ± 6.5 | 37.7 ± 14.9 | NCC[C@@H](O)c1cccc(OCC2CCCCC2)n1 [Example 6, (R)-3-Amino-1-(6-(cyclohexylmethoxy)pyridin-2-yl)propan-1-ol] | inhibition at 3 mg/kg (Time 2 hour): 93.2 ± 0.9%; inhibition at 3 mg/kg (Time 4 hour): 85.5 ± 2.9%; inhibition at 3 mg/kg (Time 6 hour): 62.3 ± 3.8%; inhibition at 3 mg/kg (Time 8 hour): 30.8 ± 9.9%; inhibition at 3 mg/kg (Time 16 hour): 0%; inhibition at 3 mg/kg (Time 24 hour): 0%
7 | 0 | – | NCCC(O)c1cc(OCC2CCCCC2)ccn1 (centres unmarked) [Example 12, 3-Amino-1-(4-(cyclohexylmethoxy)pyridin-2-yl)propan-1-ol] | –
8 | – | 98.2 ± 2.3 | CCCC(CCC)COc1cccc([C@H](O)CCN)n1 [Example 19, (R)-3-Amino-1-(6-((2-propylpentyl)oxy)pyridin-2-yl)propan-1-ol] | inhibition at 1 mg/kg (Time 8 hour): 90.7 ± 3.3%
